In this assay the test system is nNOS. Put plainly: In vitro NOS inhibition, hemoglobin capture assay. It is filed as biochemical. The note with it: ratio of Ki values, eNOS over nNOS.
For the compound `Nc1cccc(CC2CNCC2NCCCO)n1` (racemic) [compound 4, (±)-3-{cis-4'-[(6“-aminopyridin-2”-yl)methyl]pyrrolidin-3'-ylamino}propan-1-ol], the eNOS/nNOS is 39. Take `Cc1cc(N)nc(CC2CNCC2NCCNCc2ccc(Cl)cc2)c1` (racemic) [compound 6, (±)-N^1-{cis-4'-[(6“-amino-4”-methylpyridin-2“-yl)methyl]pyrrolidin-3'-yl}-N^2-(4'-chlorobenzyl)ethane-1,2-diamine]: the eNOS/nNOS was determined as 1002. The same measure for `Cc1cc(N)nc(CC2CNCC2NCCNCc2cccc(Cl)c2)c1` (racemic) [compound 7, (±)-N^1-{trans-4'-[(6“-amino-4”-methylpyridin-2”-yl)methyl]pyrrolidin-3'-yl}-N^2-(3'-chlorobenzyl)ethane-1,2-diamine]: 381.
